Reference: patent publication US12383556B2, “Methods of treating Sjögren's syndrome using a Bruton's tyrosine kinase inhibitor” (NOVARTIS AG, priority 2019, dated 2025)
Read-outs that look alike come from different tables or passages of the source.

Tests used:
[1] = Safety and tolerability in healthy volunteers (first-in-human study); assay type: in vivo; details: for overall safety assessment: dosing up to 600 mg (200 mg twice daily)
Description: Standard safety monitoring was used throughout all study parts. A dedicated assessment of potential skin bruising events were included. All vital signs, physical examination and subject history, ECGs, adverse events, and laboratory safety parameters (blood chemistry, hematology and urinalysis) up to 96 hours post last dose as well as PK data from the previous dose group (if available) up to 48 hours post last dose were to be reviewed in a blinded fashion for each cohort before dose escalation. Summary safety reports of reported adverse events, clinical safety laboratory parameters, QTc and heart rate were provided after completion of each dose level.
For the analysis of adverse effects, the Placebo subjects from all SAD and MAD cohorts (2 per cohort) and separated by the SAD and MAD parts were pooled into one Placebo group (n=20 for SAD and n=16 for MAD) to be compared with each single compound (I) dose group (n=6 each) and the total compound (I) group (n=60 for SAD and n=48 for MAD). There were no apparent major differences in the demographic data between placebo and the active groups both for the SAD and MAD populations.

[2] = system: defined allergen response (wheal size); assay: Skin prick test (SPT) in healthy atopic subjects; assay type: in vivo, human; details: for dose at which reduction of wheal size in SPT started to plateau: multiple ascending dose, q.d.
Description: The ability of compound (I) to inhibit a defined allergen response has been evaluated by means of the skin prick test (SPT) in healthy atopic subjects in the MAD study part of the first in human study. SPT was performed prior to dosing (at screening, baseline and pre-dose on Day 1) and at different time points after the first dose (Day 1) and after 11 days of once daily dosing (Day 12).

[3] = system: FcεR1-mediated basophil activation; assay: Ex vivo basophil activation (CD63, CD203c), whole blood stimulated with anti-IgE, flow cytometry; assay type: in vivo, human
Description: In addition, ex vivo inhibition of basophil activation (monitored by surface expression of CD63 and CD203c) was used as distal mechanistic biomarker to test downstream PD effects of compound (I). To determine the PD effect of compound (I) on basophil activation, whole blood was stimulated ex vivo with anti-IgE. Degranulation was evaluated by percentage of CD63+ and CD203+ basophils by flow cytometry.

[4] = First-in-human Part 4 multiple dose b.i.d. blood PK; assay type: in vivo
Source text: (§1) First-in-human study in up to approximately 168 healthy volunteers (HVs), of which 64 (in Parts 2 & 4) had asymptomatic atopic diathesis. • Part 1 was a double-blind (subject and investigator blind, sponsor unblinded), placebo-controlled single ascending dose (SAD) escalation study of 10 cohorts (N=80) • Part 2 was a double-blind (subject and investigator blind, sponsor unblinded), placebo-controlled multiple ascending dose (MAD) (13 doses over 12 days) escalation study employing once daily dosing in 6 cohorts in healthy volunteers with asymptomatic atopic diathesis (N=48) • Part 3 was a single dose open-label crossover food effect study in 12 HVs • Part 4 was a double-blind (subject and investigator blind, sponsor unblinded), placebo-controlled multiple dose (25 doses over 12 days) study employing twice daily dosing in 2 cohorts of healthy volunteers with asymptomatic atopic diathesis (N=16)
In Parts 2 and 4, subjects were admitted on Day −2 or −1 for baseline safety assessments and to confirm eligibility. Eligible subjects received the first dose of compound (I) under fasting conditions on Day 1, and continued to take study medication under fasting conditions up to and including Day 12. Subjects were domiciled from Day −2 or −1 until the morning of Day 16, which equals 96 hours after the last dose of compound (I) was received. In Parts 2 and 4, the study medication was given once daily and twice daily respectively (details are found in the schedule of assessments).
Subjects were assigned to one of the following cohorts. In each cohort, 8 subjects were randomized to either Compound (I) or matching placebo in a 6:2 ratio. • Cohort 1: multiple oral doses of 100 mg Compound (I) or matching placebo in a bid regimen • Cohort 2: multiple oral doses of 200 mg Compound (I) or matching placebo in a bid regimen
Pharmacokinetic samples were obtained in blood and evaluated in all subjects at all dose levels. The samples from placebo subjects were not analyzed. […] Compound (I) concentrations were determined in blood by a validated LC-MS/MS method.

[5] = First-in-human Part 1 single ascending dose blood PK; assay type: in vivo
Description: A first-in-human study was conducted to assess the safety and tolerability, pharmacokinetics (PK) and pharmacodynamics (PD) of single and multiple doses of compound (I) both as once daily (qd) and twice daily (bid) oral administration in healthy volunteers and those with atopic diathesis, to support further clinical development of compound (I) in autoimmune diseases. This study also explored the effect of food intake.
as §1
In Part 1, subjects were admitted to the study site on Day −2 or −1 for baseline safety assessments and to confirm eligibility. Eligible subjects received a single dose of compound (I) or placebo under fasting conditions on Day 1. They were domiciled from Day −1 to the morning of Day 5 (96 hours post last drug administration).
Subjects were assigned to one of the following 10 cohorts. In each cohort, 8 subjects were randomized to either compound (I) or matching placebo in an overall 6:2 ratio. The first sub-cohort was randomized in a 1:1 ratio as one subject on compound (I) and one on matching placebo. The remaining 6 subjects per cohort, dosed after a 48-hour observation period of the initially dosed 2 subjects, were randomized in a 5:1 ratio. • Cohort 1: single oral dose of 0.5 mg compound (I) or matching placebo • Cohort 2: single oral dose of 1.5 mg compound (I) or matching placebo • Cohort 3: single oral dose of 5 mg compound (I) or matching placebo • Cohort 4: single oral dose of 15 mg compound (I) or matching placebo • Cohort 5: single oral dose of 30 mg compound (I) or matching placebo • Cohort 6: single oral dose of 60 mg compound (I) or matching placebo • Cohort 7: single oral dose of 100 mg compound (I) or matching placebo • Cohort 8: single oral dose of 200 mg compound (I) or matching placebo • Cohort 9: single oral dose of 400 mg compound (I) or matching placebo • Cohort 10: single oral dose of 600 mg compound (I) or matching placebo
Pharmacokinetic samples were obtained in blood and evaluated in all subjects at all dose levels. The samples from placebo subjects were not analyzed. The samples for PK assessments from subjects were collected at time points defined in the study. Compound (I) concentrations were determined in blood by a validated LC-MS/MS method.

For `C=CC(=O)N(C)CCOc1c(N)ncnc1-c1cc(F)cc(NC(=O)c2ccc(C3CC3)cc2F)c1C` [Compound of Formula (I), N-(3-(6-Amino-5-(2-(N-methylacrylamido)ethoxy)pyrimidin-4-yl)-5-fluoro-2-methylphenyl)-4-cyclopropyl-2-fluorobenzamide], the “serious or severe adverse events related to intake” value ([1]; 0.5 mg to 600 mg, healthy volunteers) was “no serious or severe adverse event”, the tolerability ([1]; 0.5 mg to 600 mg, single dose or up to 18 days once or twice daily) was “well tolerated” and the overall safety assessment [1] was “proven to be safe”. The overall safety assessment ([1]; listed as compound (I)) was “does not reveal significant safety concerns”, the “nature of observed adverse events” value ([1]; healthy volunteers) was “generally mild in nature” and the “inhibition of wheal size in SPT” value ([2]; 10 mg q.d.) was “minimal inhibition”. The “dose at which reduction of wheal size in SPT started to plateau” value ([2]; listed as compound (I)) was “around 100 mg”, the “dose at which reduction of wheal size in SPT started to plateau” value ([2]; listed as compound of Formula (I)) was 100 mg and the “reduction of CD63 up-regulation” value ([3]; 10 mg q.d., as restated) was greater than 80%. The “inhibition of CD63 upregulation” value ([3]; 10 mg q.d., day 12 (steady state), 8 h after administration) was greater than 90%, the “maximum trough inhibition of CD203c activation” value ([3]; Day 12, multiple doses) was “only achieved with b.i.d. administration of 100 mg and 200 mg” and the “trough level inhibition of CD63” value ([3]; doses ≥50 mg q.d., day 12) was greater than 90%. The “inhibition of ex vivo basophil activation measured by CD63” value ([3]; single dose 60 mg, 24 h post dose) was greater than 89%, the “maximum inhibition of CD203c” value ([3]; single dose 200 mg, 24 h post dose) was roughly 50% and the “inhibition of ex vivo basophil activation measured by CD63” value ([3]; single doses higher than 60 mg, 24 h post dose) was roughly 100%. For the same compound, the “increase of AUCtau from 100 mg to 200 mg b.i.d.” value ([4]; day 12) was “dose proportional increase”, the “increase of Cmax from 100 mg to 200 mg b.i.d.” value ([4]; day 12) was 1.33 fold and the Tmax ([4]; human, blood, oral, b.i.d. regimen 100 mg and 200 mg) was roughly 1 h. For the same compound, the half-life ([5]; human, blood, oral, single ascending doses, dose-independent, read-out: distribution phase T1/2 (converted)) was roughly 1 h, the MRT ([5]; human, blood, oral, single ascending doses, read-out: mean residence time (MRT) in the circulation) was 1 to 5 h and the half-life ([5]; human, blood, oral, single dose 100 mg, read-out: terminal half-life (converted)) was 4 h. The half-life ([5]; human, blood, oral, single dose 600 mg, read-out: terminal half-life (converted)) was 18 h and the “oral blood clearance CL/F, estimate across all cohorts” value ([5]; single dose) was “about 383 L/h”.
